Earlier results in PMC7321301, “Characteristics of New Peptides GQLGEHGGAGMG, GEHGGAGMGGGQFQPV, EQGFLPGPEESGR, RLARAGLAQ, YGNPVGGVGH, and GNPVGGVGHGTTGT as Inhibitors of Enzymes Involved in Metabolic Syndrome and Antimicrobial Potential” (Molecules, 2020).
Like-named read-outs stand apart in the source and are kept apart here. No end group written: not given here.

Experiments:
ACE = conditions: cited from earlier work
α-amylase = conditions: no reference given; cited from earlier work

AFKDEDTEEVPFR
ACE inhibitory IC50 (ACE): 127 µg/mL

Thα1: peptide Thα1, ACE inhibitory, from another study (SDAAVDTSSEITTKDLKEKKEVVEEAEN; ends and bridges not checked; UniProt P06454 2-29, looked up)
ACE inhibitory IC50 (ACE): 2.5 µg/mL

C[C@H](CS)C(=O)N1CCC[C@H]1C(=O)O [Captropril]
type of ACE inhibition (ACE): competitive inhibitor

C[C@H]1O[C@H](O[C@H]2[C@H](O)[C@@H](O)[C@@H](O[C@H]3[C@H](O)[C@@H](O)C(O)O[C@@H]3CO)O[C@@H]2CO)[C@H](O)[C@@H](O)[C@@H]1N[C@H]1C=C(CO)[C@@H](O)[C@H](O)[C@H]1O (stereo partly shown) [acarbose]
type of α-amylase inhibition (α-amylase): competitive inhibition

GKHVAVHAR [GHA-8]
ACE inhibitory activity (ACE): exhibited ACE inhibitory activity

GKPVAVPA [GA-8]
ACE inhibitory activity (ACE): exhibited ACE inhibitory activity

TTFHTSGY
type of ACE inhibition (ACE; inhibition kinetic analysis): competitive inhibitor
